Data reported in patent US9447026B2, “Bicyclic analgesic compounds” (KALYRA PHARMACEUTICALS, INC., priority 2013, dated 2016).

What was measured:
male ICR mice = assay: Formalin Paw Test; assay type: in vivo
Description: One test compound or the vehicle was administered to each mouse in each test group (8 mice per group). Non-fasted male ICR mice weighing 23±3 g were used. Compounds of Formula (I) were administered at a concentration of 3 mg/kg, 10 mg/kg, 15 mg/kg, 30 mg/kg, 60 mg/kg, 100 mg/kg, 200 mg/kg or 300 mg/kg; morphine was administered at a concentration of 5 mg/kg; and acetaminophen was administered at a concentration of 200 mg/kg. The control group received the vehicle (5% DMSO/40% PEG400/20% HPbCD/Saline). After 30 or 60 minutes, a 2% formalin solution (0.02 mL) was injected into one hind paw (sub-plantar) of each mouse. Responses were measured every 5 minutes after the formalin injection for 35 minutes.

[1] = test system: pooled human liver microsomes; assay: Glutathione Conjugation Assay; assay type: in vitro ADME; conditions: 100 μM test compound, 1 mM glutathione, NADPH, 60 mins at 37° C.
Description: An incubation mixture consisting of 5 μL of 10 mM test compound in DMSO (5 μL of DMSO for negative control; 5 μL of 10 mM acetaminophen in DMSO for positive control), 5 μL of 0.1 M glutathione 25 mM EDTA in water, 50 μL of 100 mM MgCl2 in water, 50 μL of 20 mg/mL pooled human liver microsomes (P-450 content: ˜0.5 nmol/mg protein), and 340 μL of 100 mM potassium phosphate buffer (pH 7.4) was preincubated at 37° C. for 10 mins. The reaction was initiated by the addition of 50 μL of 100 mM NADPH solution. The final incubation volume was 0.5 mL. The incubation mixture contains 100 μM test compound or acetaminophen (positive control), 1 mM glutathione, and 1 μM P450. After 60 mins incubation at 37° C., 1 mL of chilled acetonitrile was added to stop the reaction. After the addition of acetonitrile, the sample was vortexed and centrifuged. The supernatant was collected, concentrated in TurboVap under N2 (10 psi) at 30° C. for 35 mins, and transferred to a 96-well plate. The plate was capped and centrifuged. The supernatant was injected for LC-MS/MS analysis.
As a result, one skilled in the art would not expect compounds of Formula (I) to form the reactive metabolite NAPQI. A 129 neutral loss scan can be used to search or detect the formation of glutathione conjugates.

[2] = 200 mg/kg, administered 30 minutes before formalin injection, acetaminophen 200 mg/kg, FIG. 5

| Compound | amount less than the amount of acetaminophen needed to achieve the approximate same pain response (male ICR mice; 60 mg/kg vs 200 mg/kg acetaminophen) | efficacy compared to acetaminophen, after 25 minutes (male ICR mice; [2]) | pain response compared to acetaminophen, initial 25 minutes (male ICR mice; [2]) | dosage providing a pain response approximately equal to 200 mg/kg of acetaminophen (male ICR mice; dosages ranging from 3 mg/kg to 100 mg/kg, FIG. 9) [mg/kg] | pain response compared to acetaminophen, entire testing period (male ICR mice; given 60 minutes prior to formalin injection, FIG. 10) | formation of reactive metabolite NAPQI [1] | glutathione conjugate peak (129 neutral loss scan, LC-MS/MS) [1] | compound dose as percent of acetaminophen dose giving a lower pain response (male ICR mice; 60 mg/kg vs 200 mg/kg acetaminophen, tonic phase) | duration of decrease in pain response (phases) (male ICR mice; 200 mg/kg, administered 30 minutes before formalin injection, FIG. 4) | pain response compared to acetaminophen and morphine (male ICR mice; 200 mg/kg, administered 30 minutes before formalin injection, morphine 5 mg/kg, acetaminophen 200 mg/kg, FIG. 4) | efficacy compared to acetaminophen, acute phase (male ICR mice; all dosages ranging from 15 mg/kg to 200 mg/kg, FIG. 8) | pain response compared to acetaminophen (male ICR mice; dosage 200 mg/kg, FIG. 8) | dose needed to reduce the pain response to a level less than 200 mg/kg of acetaminophen (male ICR mice; tonic phase, FIG. 8) [mg/kg] |
| --- | --- | --- | --- | --- | --- | --- | --- | --- | --- | --- | --- | --- | --- |
| CC(=O)NC12CC(C1)C2 [compound 4, N-(bicyclo[1.1.1]pentan-1-yl)acetamide] | about 33% | increased efficacy compared to acetaminophen | reduces the pain response in a manner similar to acetaminophen for the initial 25 minutes | 60 | reduces the pain response in a manner similar to acetaminophen throughout the entire testing period | NAPQI was not formed | no glutathione conjugate peak was observed | – | – | – | – | – | – |
| CC(=O)NC12CC(NC(C)=O)(C1)C2 [compound 10, N,N′-(bicyclo[1.1.1]pentane-1,3-diyl)diacetamide] | – | – | – | – | – | NAPQI was not formed | no glutathione conjugate peak was observed | about 33% | lasted through both the early/acute phase (0-5 minutes) and the late/tonic phase (20-35 minutes) | significantly decreased the pain response compared to both acetaminophen and morphine | equal to or significant increased efficacy compared to acetaminophen | approximately 50% | 60 |
